Blank lines part the entries; values can stand above or below the molecule they belong to. The source made the active and inactive calls. The rule behind the calls is not given here. Where a SMILES comes first, the peptide text is derived from it. The star is where a group is joined. Cbz = O=C(OCc1ccccc1)*
Columns and labels:
[1] = target: T1, Protein deacetylase HDAC6 (Homo sapiens, UniProt Q9UBN7); assay: Displacement of FITC-labeled C-terminal ubiquitin LRLRGG peptide from HDAC6-ubiquitin binding domain (1109 to 1215 residues) (unknown origin) extracted from Escherichia coli BL21 (DE3) by FPPD assay
T1 sequence (Q9UBN7 whole entry): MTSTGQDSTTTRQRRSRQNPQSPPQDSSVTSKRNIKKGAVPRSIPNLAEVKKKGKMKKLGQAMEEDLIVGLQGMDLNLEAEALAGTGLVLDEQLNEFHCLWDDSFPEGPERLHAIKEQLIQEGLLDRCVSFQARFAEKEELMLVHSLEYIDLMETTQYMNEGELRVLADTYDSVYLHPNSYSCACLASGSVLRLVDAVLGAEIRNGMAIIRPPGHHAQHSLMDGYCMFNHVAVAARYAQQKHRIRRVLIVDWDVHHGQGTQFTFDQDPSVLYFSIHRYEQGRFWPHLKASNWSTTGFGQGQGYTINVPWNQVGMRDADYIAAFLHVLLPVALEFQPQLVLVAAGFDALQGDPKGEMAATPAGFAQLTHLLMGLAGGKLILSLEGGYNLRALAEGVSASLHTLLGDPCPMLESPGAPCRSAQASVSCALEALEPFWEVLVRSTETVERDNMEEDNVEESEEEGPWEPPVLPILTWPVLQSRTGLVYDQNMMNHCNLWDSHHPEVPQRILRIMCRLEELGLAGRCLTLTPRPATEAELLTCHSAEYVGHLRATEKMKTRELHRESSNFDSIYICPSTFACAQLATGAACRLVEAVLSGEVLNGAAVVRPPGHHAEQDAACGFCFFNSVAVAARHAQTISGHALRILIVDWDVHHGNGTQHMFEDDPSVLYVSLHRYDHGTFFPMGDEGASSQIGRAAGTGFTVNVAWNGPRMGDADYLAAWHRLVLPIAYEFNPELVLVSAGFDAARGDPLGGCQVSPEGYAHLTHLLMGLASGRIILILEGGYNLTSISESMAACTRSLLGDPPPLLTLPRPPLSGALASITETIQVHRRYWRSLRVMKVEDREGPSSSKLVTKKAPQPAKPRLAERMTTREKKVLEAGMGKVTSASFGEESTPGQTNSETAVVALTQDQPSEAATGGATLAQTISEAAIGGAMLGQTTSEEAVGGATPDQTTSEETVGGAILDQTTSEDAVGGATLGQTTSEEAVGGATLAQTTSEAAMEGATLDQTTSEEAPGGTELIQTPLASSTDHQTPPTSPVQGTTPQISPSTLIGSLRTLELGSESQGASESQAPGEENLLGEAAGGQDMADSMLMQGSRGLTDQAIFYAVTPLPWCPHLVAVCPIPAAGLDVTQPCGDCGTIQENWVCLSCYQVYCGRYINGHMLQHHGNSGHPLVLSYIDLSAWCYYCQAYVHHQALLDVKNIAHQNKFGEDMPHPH

[2] = test system: HL-60; assay: Cytotoxicity against human HL-60 cells assessed as cell health index score at 0.005 to 100 uM incubated for 4 hrs by fluorescent dye based flow cytometric analysis; assay type: toxicity; conditions: hl-60, 4 h, dose 0.005-100 µM
[3] = target: T1, Protein deacetylase HDAC6; assay: Inhibition of HDAC6 deacetylase domain 2 (unknown origin) using fluorogenic HDAC substrate incubated for 15 to 60 mins by fluorimetric analysis
[4] = Cytotoxicity against human HEL 299 cells; assay type: toxicity, cell-based
[5] = Cytotoxicity against human HEp-2 cells; assay type: toxicity, cell-based
[6] = Cytotoxicity against green monkey […] cells; assay type: toxicity, cell-based; conditions: chlorocebus sabaeus
[7] = Cytotoxicity against dog MDCK cells; assay type: toxicity, cell-based, Canis lupus familiaris
[8] = test system: MM1.S; assay: Effect on bortezomib-induced human MM1.S cells at 1 to 10 uM pretreated with bortezomib for 6 hrs followed by compound addition and measured after 7 to 18 hrs by cellTiter-Glo luminescent cell viability assay; assay type: functional, cell-based; conditions: dose 1-10 µM, time 7-18 hrs
[9] = Cytotoxicity against human Hep3B cells; assay type: toxicity, cell-based, Hep 3B2
[10] = test system: MM1.S; assay: Cytotoxicity against human MM1.S cells assessed as reduction in cell viability at 1 to 10 nM incubated for 24 hrs by cellTiter-Glo luminescent cell viability assay; assay type: functional, cell-based
[11] = test system: MM1.S; assay: Cytotoxicity against human MM1.S cells at 8 nM incubated for 24 hrs by cellTiter-Glo assay relative to control; assay type: functional
[12] = test system: RPMI-8226; assay: Cytotoxicity against human RPMI-8226 cells at 8 nM incubated for 24 hrs by cellTiter-Glo assay relative to control; assay type: functional
[13] = test system: RPMI-8226; assay: Cytotoxicity against human RPMI-8226 cells at 2 to 12 nM incubated for 24 hrs by cellTiter-Glo assay; assay type: functional, cell-based; conditions: RPMI-8226, 24 h
[14] = test system: MM1.S; assay: Cytotoxicity against human MM1.S cells at 0.025 to 0.3 uM incubated for 24 hrs by cellTiter-Glo luminescent cell viability assay; assay type: functional, cell-based
[15] = test system: HEL 299; assay: Cytotoxicity against human HEL 299 cells at 50 uM; assay type: toxicity, cell-based; conditions: hel 299, 50 µM
[16] = test system: HEp-2; assay: Cytotoxicity against human HEp-2 cells at 50 uM; assay type: toxicity, cell-based; conditions: hep-2, 50 µM
[17] = test system: MDCK; assay: Cytotoxicity against dog MDCK cells at 50 uM; assay type: toxicity, cell-based, Canis lupus familiaris
[18] = test system: Hep 3B2; assay: Cytotoxicity against human Hep3B cells at 50 uM; assay type: toxicity, cell-based; conditions: hep 3b2, 50 µM
[19] = Cytotoxicity against green monkey […] cells at 50 uM; assay type: toxicity, cell-based; conditions: chlorocebus sabaeus

Compound: O=C(O)CCn1c2c(c3ccccc31)CS(=O)(=O)CC2
IC50 [1]: 285000 nM

Compound: CCOC(=O)CCc1nc2ccccc2c(=O)n1Cc1ccc(F)cc1
Activity [2]: 0.31

Compound: O=C(O)CCn1c2c(c3cc(F)ccc31)CS(=O)(=O)CC2
IC50 [1]: 168000 nM

Compound: CN1CCc2c(c3ccccc3n2Cc2ccc(C(=O)NO)cc2)C1 [TUBASTATIN A]
Activity [2]: > 0.5

Compound: CCOC(=O)CCc1nc2ccccc2c(=O)n1Cc1ccccc1
Activity [2]: 0.31

Compound: O=C(O)CCn1c2c(c3cc(-c4ccc(F)cc4)ccc31)CS(=O)(=O)CC2
IC50 [1]: 162000 nM

Compound: CCOC(=O)CCc1nc2ccccc2c(=O)n1C
Activity [8]: inactive
Activity [2]: 0.31

Compound: CC(C)C[C@H](NC(=O)[C@H](Cc1ccccc1)NC(=O)c1cnccn1)B(O)O [BORTEZOMIB]
CC50 [4]: 1200 nM
CC50 [9]: 1200 nM
CC50 [5]: 1200 nM
CC50 [6]: 1200 nM
IC50 [10]: 4.32 nM
Activity [2]: > 0.5
Activity [11]: ~10%
Activity [12]: ~50%
CC50 [7]: 1200 nM
IC50 [13]: 9.6 nM

Compound: CC(/C=C/C(=O)NO)=C\[C@@H](C)C(=O)c1ccc(N(C)C)cc1 [TRICHOSTATIN]
CC50 [9]: 400 nM

Compound: CC(C)C[C@@H](C=O)NC(=O)[C@H](CC(C)C)NC(=O)[C@H](CC(C)C)NC(=O)OCc1ccccc1 [MG-132] (Cbz-Leu-Leu-Leu-aldehyde)
Activity [2]: > 0.5
IC50 [14]: 150 nM

Compound: CCOC(=O)CCc1nc(OCc2ccccc2)c2ccccc2n1
Activity [15]: Toxic
Activity [16]: Toxic
Activity [17]: Toxic
Activity [18]: Toxic
Activity [19]: Toxic

Next, values leading:

IC50 [1]: 61700 nM
Compound: CCCn1c(CCC(=O)O)nc2ccccc2c1=O

IC50 [1]: 127000 nM
Compound: O=C(O)CCc1nc2ccccc2c(=O)n1Cc1ccc(F)cc1

IC50 [3]: 19 nM
Compound: O=C(NO)c1ccc(Cn2c3c(c4ccccc42)CS(=O)(=O)CC3)cc1

IC50 [1]: 68000 nM
Compound: O=C(O)CCc1nc2ccccc2c(=O)n1Cc1ccc(Cl)cc1

IC50 [1]: 20500 nM
Compound: CCn1c(CCC(=O)O)nc2ccccc2c1=O

IC50 [1]: 33100 nM
Compound: O=C(O)CCc1nc2ccccc2c(=O)n1Cc1ccccc1

IC50 [1]: 5000 nM
Compound: Cn1c(CCC(=O)O)nc2ccccc2c1=O

IC50 [1]: 542000 nM
Compound: O=C(O)CCC1C(=O)N(Cc2ccccc2)c2ccccc21 (stereo not drawn)

— ChEMBL document CHEMBL6153073, “Synthesis and functional screening of novel inhibitors targeting the HDAC6 zinc finger ubiquitin-binding domain” (Eur J Med Chem, 2025)
